# Experimental data published in patent publication US9018208B2, “Heterocycles as potassium channel modulators” (Icagen Inc., priority 2007, dated 2015).
# Where two headings read alike, the source gives them in different places.
# Tested on: SH-SY5Y M-currents (KCNQ2, KCNQ3 and KCNQ5)
# Experiment: SH-SY5Y native cell line FLIPR assay (voltage-sensitive dye DiBAC)
# Type: cell-based, mouse neuroblastoma, rat glioma hybrid cell line
# Conditions: SH-SY5Y native cell line, read-out: SH-SY5Y EC50
# How it was run: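 Response is peak DiBAC fluorescence change, normalised to the maximum from a positive control agent, sampled every 30 s over 25 min. Before compound addition, SH-SY5Y cells differentiated with PGE1 plus isomethylbutylxanthine were dye-loaded for 1 h in EBSS with […] DiBAC.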
Compound,"EC50 (FLIPR assay, Table 2) [nM]",also measured
"O=C(Cc1ccc(C(F)(F)F)cc1)Nc1nc2ccc(F)cn2c1-c1ccc(F)cc1 [Compound 135, N-(6-fluoro-3-(4-fluorophenyl)imidazo[1,2-a]pyridin-2-yl)-2-(4-(trifluoromethyl)phenyl)acetamide]",500 to 3000,
"O=C(Cc1ccc(F)cc1Cl)Nc1nc2ccc(F)cn2c1-c1ccc(F)cc1 [Compound 140, 2-(2-chloro-4-fluorophenyl)-N-(6-fluoro-3-(4-fluorophenyl)imidazo[1,2-a]pyridin-2-yl)acetamide]",3000 to 10000,
"O=C(Cc1ccc(F)cc1)Nc1nc2ccc(C(F)(F)F)cn2c1-c1ccc(F)cc1 [Compound 121, 2-(4-fluorophenyl)-N-(3-(4-fluorophenyl)-6-(trifluoromethyl)imidazo[1,2-a]pyridin-2-yl)acetamide]",< 500,
"CC(C)(C)Cc1c(NC(=O)CC2CCCC2)nc2ccc(C(F)(F)F)cn12 [Compound 72, 2-cyclopentyl-N-(3-neopentyl-6-(trifluoromethyl)imidazo[1,2-a]pyridin-2-yl)acetamide]",,"EC50 (FLIPR assay, Table 1): < 500 nM"
"CC(C)(C)CC(=O)Nc1nc2cc(C(F)(F)F)ccn2c1-c1ccccc1 [Compound 100, 3,3-dimethyl-N-(3-phenyl-7-(trifluoromethyl)imidazo[1,2-a]pyridin-2-yl)butanamide]",500 to 3000,
"O=C(Cc1cc(F)cc(F)c1)Nc1nc2ccc(C(F)(F)F)cn2c1C1CC1 [Compound 80, N-(3-cyclopropyl-6-(trifluoromethyl)imidazo[1,2-a]pyridin-2-yl)-2-(3,5-difluorophenyl)acetamide]",,"EC50 (FLIPR assay, Table 1): < 500 nM"
"O=C(CC(F)(F)F)Nc1nc2cc(C(F)(F)F)ccn2c1-c1ccccc1 [Compound 104, 3,3,3-trifluoro-N-(3-phenyl-7-(trifluoromethyl)imidazo[1,2-a]pyridin-2-yl)propanamide]",3000 to 10000,
"O=C(Nc1nc2ccccn2c1-c1nccs1)C1CCC(F)(F)CC1 [Compound 409, 4,4-difluoro-N-(3-(thiazol-2-yl)imidazo[1,2-a]pyridin-2-yl)cyclohexanecarboxamide]",,EC50 (FLIPR assay (Table 3)): 500 to 3000 nM
"O=C(Cc1ccc(F)cc1)Nc1nc2cc(C(F)(F)F)ccn2c1-c1ccccc1 [Compound 99, 2-(4-fluorophenyl)-N-(3-phenyl-7-(trifluoromethyl)imidazo[1,2-a]pyridin-2-yl)acetamide]",< 500,
"CC(C)(C)CC(=O)Nc1nc2ccc(F)cn2c1-c1ccncc1 [Compound 351, N-(6-fluoro-3-(pyridin-4-yl)imidazo[1,2-a]pyridin-2-yl)-3,3-dimethylbutanamide]",,EC50 (FLIPR assay (Table 3)): 3000 to 10000 nM
"O=C(Cc1ccc(F)cc1)Nc1nc2ccc(C(F)(F)F)cn2c1C1CCCCC1 [Compound 41, N-(3-cyclohexyl-6-(trifluoromethyl)imidazo[1,2-a]pyridin-2-yl)-2-(4-fluorophenyl)acetamide]",,"EC50 (FLIPR assay, Table 1): < 500 nM"
"CC(C)(C)CC(=O)Nc1nc2ccc(F)cn2c1-c1nccc(C(F)(F)F)n1 [Compound 377, N-(6-fluoro-3-(4-(trifluoromethyl)pyrimidin-2-yl)imidazo[1,2-a]pyridin-2-yl)-3,3-dimethylbutanamide]",,EC50 (FLIPR assay (Table 3)): 3000 to 10000 nM
"CC(C(=O)Nc1nc2cc(C(F)(F)F)ccn2c1-c1ccccc1)c1ccccc1 (stereo not drawn) [Compound 110, 2-phenyl-N-(3-phenyl-7-(trifluoromethyl)imidazo[1,2-a]pyridin-2-yl)propanamide]",500 to 3000,
"Cc1ccc2nc(NC(=O)CC(C)(C)C)c(-c3ccc(F)cc3)n2c1 [Compound 167, N-(3-(4-fluorophenyl)-6-methylimidazo[1,2-a]pyridin-2-yl)-3,3-dimethylbutanamide]",< 500,
"CC(C)C(C)C(=O)Nc1nc2ccc(F)cn2c1-c1ccc(F)cn1 (stereo not drawn) [Compound 368, N-(6-fluoro-3-(5-fluoropyridin-2-yl)imidazo[1,2-a]pyridin-2-yl)-2,3-dimethylbutanamide]",,EC50 (FLIPR assay (Table 3)): 3000 to 10000 nM
"O=C(CC1CCCC1)Nc1nc2ccc(F)cn2c1-c1ccc(F)cc1F [Compound 118, 2-cyclopentyl-N-(3-(2,4-difluorophenyl)-6-fluoroimidazo[1,2-a]pyridin-2-yl)acetamide]",500 to 3000,
"CC(C)(C)CC(=O)Nc1nc2ccccn2c1-c1nccs1 [Compound 406, 3,3-dimethyl-N-(3-(thiazol-2-yl)imidazo[1,2-a]pyridin-2-yl)butanamide]",,EC50 (FLIPR assay (Table 3)): 500 to 3000 nM
"CC(C)(C)CC(=O)Nc1nc2ccc(C(F)(F)F)cn2c1C1CCCC1 [Compound 48, N-(3-cyclopentyl-6-(trifluoromethyl)imidazo[1,2-a]pyridin-2-yl)-3,3-dimethylbutanamide]",,"EC50 (FLIPR assay, Table 1): < 500 nM"
"Cc1ccc2nc(NC(=O)Cc3ccc(F)cc3)c(-c3nccs3)n2n1 [Compound 390, 2-(4-fluorophenyl)-N-(6-methyl-3-(thiazol-2-yl)imidazo[1,2-b]pyridazin-2-yl)acetamide]",,EC50 (FLIPR assay (Table 3)): 3000 to 10000 nM
"O=C(Cc1ccccc1)Nc1nc2ccc(C(F)(F)F)cn2c1-c1ccc(F)cc1 [Compound 119, N-(3-(4-fluorophenyl)-6-(trifluoromethyl)imidazo[1,2-a]pyridin-2-yl)-2-phenylacetamide]",< 500,
"2-(3,4-dichlorophenyl)-N-(6-fluoro-3-(4-fluorophenyl)imidazo yl)acetamide [Compound 142]",< 500,
"O=C(Cc1ccc(F)cc1)Nc1nc2ccc(F)cn2c1-c1ccc(C(F)(F)F)cc1 [Compound 126, N-(6-fluoro-3-(4-(trifluoromethyl)phenyl)imidazo[1,2-a]pyridin-2-yl)-2-(4-fluorophenyl)acetamide]",500 to 3000,
"CC1(CC(=O)Nc2nc3ccc(C(F)(F)F)cn3c2C2CCCCC2)CCCC1 [Compound 47, N-(3-cyclohexyl-6-(trifluoromethyl)imidazo[1,2-a]pyridin-2-yl)-2-(1-methylcyclopentyl)acetamide]",,"EC50 (FLIPR assay, Table 1): < 500 nM"
"N#Cc1ccc(CC(=O)Nc2nc3ccc(F)cn3c2-c2ccc(F)cc2)cc1 [Compound 137, 2-(4-cyanophenyl)-N-(6-fluoro-3-(4-fluorophenyl)imidazo[1,2-a]pyridin-2-yl)acetamide]",500 to 3000,
"Cc1ccc2nc(NC(=O)C3CCC(F)(F)CC3)c(-c3nccs3)n2n1 [Compound 389, 4,4-difluoro-N-(6-methyl-3-(thiazol-2-yl)imidazo[1,2-b]pyridazin-2-yl)cyclohexanecarboxamide]",,EC50 (FLIPR assay (Table 3)): 3000 to 10000 nM
"O=C(Cc1ccccc1)Nc1nc2ccc(F)cn2c1-c1ccccc1 [Compound 96, N-(6-fluoro-3-phenylimidazo[1,2-a]pyridin-2-yl)-2-phenylacetamide]",500 to 3000,
"O=C(Cc1ccc(F)cc1)Nc1nc2ccc(F)cn2c1-c1nc2ccccc2s1 [Compound 379, N-(3-(benzo[d]thiazol-2-yl)-6-fluoroimidazo[1,2-a]pyridin-2-yl)-2-(4-fluorophenyl)acetamide]",,EC50 (FLIPR assay (Table 3)): 500 to 3000 nM

# Now from value to compound, other results behind:
"EC50 (FLIPR assay, Table 2) [nM]",Compound,also measured
500 to 3000,"CC(C)(CO)CC(=O)Nc1nc2ccc(F)cn2c1-c1ccc(OC(F)(F)F)cc1 [Compound 192, N-(6-fluoro-3-(4-(trifluoromethoxy)phenyl)imidazo[1,2-a]pyridin-2-yl)-4-hydroxy-3,3-dimethylbutanamide]",
< 500,"O=C(Cc1ccccc1)Nc1nc2ccc(F)cn2c1-c1ccc(OC(F)(F)F)cc1 [Compound 207, N-(6-fluoro-3-(4-(trifluoromethoxy)phenyl)imidazo[1,2-a]pyridin-2-yl)-2-phenylacetamide]",
< 500,"O=C(Nc1nc2ccc(F)cn2c1-c1ccc(OC(F)(F)F)cc1)C1CCCCCC1 [Compound 291, N-(6-fluoro-3-(4-(trifluoromethoxy)phenyl)imidazopyridin-2-yl)cycloheptanecarboxamide]",
500 to 3000,"CC(CC(=O)Nc1nc2ccc(F)cn2c1-c1cccc(Cl)c1)C(F)(F)F (stereo not drawn) [Compound 315, N-(3-(3-chlorophenyl)-6-fluoroimidazo[1,2-a]pyridin-2-yl)-4,4,4-trifluoro-3-methylbutanamide]",
500 to 3000,"O=C(CCC(F)(F)F)Nc1nc2ccc(F)cn2c1-c1cccc(C(F)(F)F)c1 [Compound 281, 4,4,4-trifluoro-N-(6-fluoro-3-(3-(trifluoromethyl)phenyl)imidazo[1,2-a]pyridin-2-yl)butanamide]",
< 500,"Cc1ccc(-c2c(NC(=O)CC(C)(C)C)nc3ccc(F)cn23)cc1F [Compound 201, N-(6-fluoro-3-(3-fluoro-4-methylphenyl)imidazo[1,2-a]pyridin-2-yl)-3,3-dimethylbutanamide]",
< 500,"CC(C)(C)CC(=O)Nc1nc2ccc(F)cn2c1-c1ccc(C(F)(F)F)c(F)c1 [Compound 199, N-(6-fluoro-3-(3-fluoro-4-(trifluoromethyl)phenyl)imidazo[1,2-a]pyridin-2-yl)-3,3-dimethylbutanamide]",
500 to 3000,"O=C(CCOc1ccc(F)cc1)Nc1nc2ccc(F)cn2c1-c1ccc(OC(F)(F)F)cc1 [Compound 250, N-(6-fluoro-3-(4-(trifluoromethoxy)phenyl)imidazo[1,2-a]pyridin-2-yl)-3-(4-fluorophenoxy)propanamide]",
< 500,"O=C(CCCC(F)(F)F)Nc1nc2ccc(F)cn2c1-c1ccc(OC(F)(F)F)cc1 [Compound 174, 5,5,5-trifluoro-N-(6-fluoro-3-(4-(trifluoromethoxy)phenyl)imidazo[1,2-a]pyridin-2-yl)pentanamide]",
< 500,"CC(CC(=O)Nc1nc2ccc(F)cn2c1-c1ccc(OC(F)(F)F)cc1)C(F)(F)F (stereo not drawn) [Compound 195, 4,4,4-trifluoro-N-(6-fluoro-3-(4-(trifluoromethoxy)phenyl)imidazo[1,2-a]pyridin-2-yl)-3-methylbutanamide]",
< 500,"CC(C)(C)CC(=O)Nc1nc2ccc(F)cn2c1-c1cc(F)cc(F)c1 [Compound 227, N-(3-(3,5-difluorophenyl)-6-fluoroimidazo[1,2-a]pyridin-2-yl)-3,3-dimethylbutanamide]",
3000 to 10000,"O=C(Nc1nc2ccc(F)cn2c1-c1ccc(OC(F)(F)F)cc1)C1CCOC1 (stereo not drawn) [Compound 248, N-(6-fluoro-3-(4-(trifluoromethoxy)phenyl)imidazo[1,2-a]pyridin-2-yl)tetrahydrofuran-3-carboxamide]",
